Results from ChEMBL document CHEMBL1240419, “Synthesis and antibacterial activity of 3-O-carbamoyl derivatives of 6,11-di-O-methylerythromycin A: a novel class of acylides” (2010).
Values after ≈ are worked out from the molar mass of the structure shown.

Key:
Assay type in all cases: functional
[1] = test system: Staphylococcus aureus; assay: Antibacterial activity against erythromycin-susceptible Staphylococcus aureus ATCC 25923 by broth microdilution method
[2] = test system: Staphylococcus aureus; assay: Antibacterial activity against erythromycin-resistant, methicillin-susceptible Staphylococcus aureus A265 by broth microdilution method
[3] = test system: Staphylococcus aureus; assay: Antibacterial activity against erythromycin, methicillin-resistant Staphylococcus aureus A333 by broth microdilution method
[4] = test system: Streptococcus pneumoniae; assay: Antibacterial activity against erythromycin-susceptible Streptococcus pneumoniae ATCC 49619 by broth microdilution method
[5] = test system: Streptococcus pneumoniae; assay: Antibacterial activity against erythromycin-resistant Streptococcus pneumoniae 3469 by broth microdilution method
[6] = test system: Haemophilus influenzae; assay: Antibacterial activity against ampicillin-susceptible Haemophilus influenzae ATCC 49247 by broth microdilution method
[7] = test system: Haemophilus influenzae; assay: Antibacterial activity against ampicillin-resistant Haemophilus influenzae 3300 by broth microdilution method

Row | Compound | MIC [1] | MIC [2] | MIC [3] | MIC [4] | MIC [5] | MIC [6] | MIC [7]
1 | CCCNC(=O)O[C@H]1[C@H](C)[C@@H](O[C@@H]2O[C@H](C)C[C@H](N(C)C)[C@H]2O)[C@](C)(OC)C[C@@H](C)C(=O)[C@@H](C)[C@@H](OC)[C@](C)(O)[C@@H](CC)OC(=O)[C@@H]1C | 2 µg/mL (≈ 2.9 µM) | 1 µg/mL (≈ 1.45 µM) | > 64 µg/mL | 0.125 µg/mL (≈ 0.181 µM) | 0.125 µg/mL (≈ 0.181 µM) | > 64 µg/mL | 64 µg/mL (≈ 92.9 µM)
2 | CCCCNC(=O)O[C@H]1[C@H](C)[C@@H](O[C@@H]2O[C@H](C)C[C@H](N(C)C)[C@H]2O)[C@](C)(OC)C[C@@H](C)C(=O)[C@@H](C)[C@@H](OC)[C@](C)(O)[C@@H](CC)OC(=O)[C@@H]1C | 1 µg/mL (≈ 1.42 µM) | 1 µg/mL (≈ 1.42 µM) | > 64 µg/mL | 0.125 µg/mL (≈ 0.178 µM) | 0.125 µg/mL (≈ 0.178 µM) | 4 µg/mL (≈ 5.69 µM) | 4 µg/mL (≈ 5.69 µM)
3 | CCCCCNC(=O)O[C@H]1[C@H](C)[C@@H](O[C@@H]2O[C@H](C)C[C@H](N(C)C)[C@H]2O)[C@](C)(OC)C[C@@H](C)C(=O)[C@@H](C)[C@@H](OC)[C@](C)(O)[C@@H](CC)OC(=O)[C@@H]1C | 2 µg/mL (≈ 2.79 µM) | 4 µg/mL (≈ 5.58 µM) | > 64 µg/mL | 0.125 µg/mL (≈ 0.174 µM) | 0.25 µg/mL (≈ 0.349 µM) | 4 µg/mL (≈ 5.58 µM) | 4 µg/mL (≈ 5.58 µM)
4 | CC[C@H]1OC(=O)[C@H](C)[C@@H](OC(=O)NC2CCCCC2)[C@H](C)[C@@H](O[C@@H]2O[C@H](C)C[C@H](N(C)C)[C@H]2O)[C@](C)(OC)C[C@@H](C)C(=O)[C@@H](C)[C@@H](OC)[C@]1(C)O | 8 µg/mL (≈ 11 µM) | 2 µg/mL (≈ 2.74 µM) | > 64 µg/mL | 0.125 µg/mL (≈ 0.171 µM) | 0.125 µg/mL (≈ 0.171 µM) | 4 µg/mL (≈ 5.49 µM) | 4 µg/mL (≈ 5.49 µM)
5 | CC[C@H]1OC(=O)[C@H](C)[C@@H](OC(=O)NCCCOC)[C@H](C)[C@@H](O[C@@H]2O[C@H](C)C[C@H](N(C)C)[C@H]2O)[C@](C)(OC)C[C@@H](C)C(=O)[C@@H](C)[C@@H](OC)[C@]1(C)O | 8 µg/mL (≈ 11.1 µM) | 4 µg/mL (≈ 5.56 µM) | > 64 µg/mL | 0.125 µg/mL (≈ 0.174 µM) | 0.125 µg/mL (≈ 0.174 µM) | 32 µg/mL (≈ 44.5 µM) | 16 µg/mL (≈ 22.3 µM)
6 | CCOCCCNC(=O)O[C@H]1[C@H](C)[C@@H](O[C@@H]2O[C@H](C)C[C@H](N(C)C)[C@H]2O)[C@](C)(OC)C[C@@H](C)C(=O)[C@@H](C)[C@@H](OC)[C@](C)(O)[C@@H](CC)OC(=O)[C@@H]1C | 8 µg/mL (≈ 10.9 µM) | 8 µg/mL (≈ 10.9 µM) | > 64 µg/mL | 0.125 µg/mL (≈ 0.171 µM) | 0.125 µg/mL (≈ 0.171 µM) | 8 µg/mL (≈ 10.9 µM) | 8 µg/mL (≈ 10.9 µM)
7 | CC[C@H]1OC(=O)[C@H](C)[C@@H](OC(=O)NCCCOC(C)C)[C@H](C)[C@@H](O[C@@H]2O[C@H](C)C[C@H](N(C)C)[C@H]2O)[C@](C)(OC)C[C@@H](C)C(=O)[C@@H](C)[C@@H](OC)[C@]1(C)O | 4 µg/mL (≈ 5.35 µM) | 4 µg/mL (≈ 5.35 µM) | > 64 µg/mL | 0.5 µg/mL (≈ 0.669 µM) | 8 µg/mL (≈ 10.7 µM) | 16 µg/mL (≈ 21.4 µM) | 32 µg/mL (≈ 42.8 µM)
8 | CCCCOCCCNC(=O)O[C@H]1[C@H](C)[C@@H](O[C@@H]2O[C@H](C)C[C@H](N(C)C)[C@H]2O)[C@](C)(OC)C[C@@H](C)C(=O)[C@@H](C)[C@@H](OC)[C@](C)(O)[C@@H](CC)OC(=O)[C@@H]1C | 4 µg/mL (≈ 5.26 µM) | 16 µg/mL (≈ 21 µM) | > 64 µg/mL | 2 µg/mL (≈ 2.63 µM) | > 64 µg/mL | 32 µg/mL (≈ 42 µM) | 64 µg/mL (≈ 84.1 µM)
9 | CC[C@H]1OC(=O)[C@H](C)[C@@H](OC(=O)NCCCO)[C@H](C)[C@@H](O[C@@H]2O[C@H](C)C[C@H](N(C)C)[C@H]2O)[C@](C)(OC)C[C@@H](C)C(=O)[C@@H](C)[C@@H](OC)[C@]1(C)O | 4 µg/mL (≈ 5.67 µM) | 16 µg/mL (≈ 22.7 µM) | > 64 µg/mL | 1 µg/mL (≈ 1.42 µM) | 8 µg/mL (≈ 11.3 µM) | 32 µg/mL (≈ 45.4 µM) | 32 µg/mL (≈ 45.4 µM)
10 | CC[C@H]1OC(=O)[C@H](C)[C@@H](OC(=O)NCc2ccco2)[C@H](C)[C@@H](O[C@@H]2O[C@H](C)C[C@H](N(C)C)[C@H]2O)[C@](C)(OC)C[C@@H](C)C(=O)[C@@H](C)[C@@H](OC)[C@]1(C)O | 2 µg/mL (≈ 2.75 µM) | 1 µg/mL (≈ 1.38 µM) | > 64 µg/mL | 0.5 µg/mL (≈ 0.688 µM) | 16 µg/mL (≈ 22 µM) | 2 µg/mL (≈ 2.75 µM) | 2 µg/mL (≈ 2.75 µM)
11 | CC[C@H]1OC(=O)[C@H](C)[C@@H](OC(=O)Nc2nccs2)[C@H](C)[C@@H](O[C@@H]2O[C@H](C)C[C@H](N(C)C)[C@H]2O)[C@](C)(OC)C[C@@H](C)C(=O)[C@@H](C)[C@@H](OC)[C@]1(C)O | 32 µg/mL (≈ 43.8 µM) | 32 µg/mL (≈ 43.8 µM) | > 64 µg/mL | 0.125 µg/mL (≈ 0.171 µM) | 8 µg/mL (≈ 11 µM) | 32 µg/mL (≈ 43.8 µM) | 32 µg/mL (≈ 43.8 µM)
12 | CC[C@H]1OC(=O)[C@H](C)[C@@H](OC(=O)NCc2ccccc2)[C@H](C)[C@@H](O[C@@H]2O[C@H](C)C[C@H](N(C)C)[C@H]2O)[C@](C)(OC)C[C@@H](C)C(=O)[C@@H](C)[C@@H](OC)[C@]1(C)O | 2 µg/mL (≈ 2.71 µM) | 0.125 µg/mL (≈ 0.17 µM) | > 64 µg/mL | 0.125 µg/mL (≈ 0.17 µM) | 0.125 µg/mL (≈ 0.17 µM) | 8 µg/mL (≈ 10.9 µM) | 4 µg/mL (≈ 5.43 µM)
